System: rat liver proteome
Assay: Liver label-free quantitative proteomics
Assay type: in vivo
Conditions: liver protein
Experimental: Liver tissue were homogenized in PreOmics iST buffer (PreOmics) using a bead ruptor. […] Peptides were purified using PreOmics iST cartridges and vacuum-centrifuged to dryness. Peptides were subsequently reconstituted in 2 vol% ACN and 0.1 vol% formic acid for single-run LC–MS analysis. Peptides were analyzed using a Thermo EASY-nLC1200 coupled online to an Exploris 480 Mass Spectrometer equipped with a Nanospray Flex Ion Source integrated with a column oven (PRSO-V1, Sonation) and a FAIMS unit. Peptides were separated using a nonlinear gradient and analyzed by acquiring spectra through Data Independent Acquisition (DIA). Data was analyzed using Spectronaut V15.7.2 (Biognosys AG) direct DIA analysis using an isoform Rat database (UniProt downloaded 22.02.2021) consisting of 9,746 protein entries utilizing the Pulsar search engine. Analysis settings were maintained to factory settings and identification was set to 1% false discovery rate (FDR) for precursor and protein level. Additional information is provided in Supplementary M&M.
Data analysis was performed using R Statistical Software (version 4.3.0). Proteomics, transcriptomics and metabolomics expression changes were visualised using heatmaps showing log2 fold change relative to control. In the heatmaps missing values were highlighted in grey.
Proteomics Analysis. Liver tissue was placed in vials containing 1.4 mm zirconia beads and taken up in 500 µL of PreOmics iST buffer (PreOmics). In a cold room set to 4 °C, tissues were homogenized utilizing a bead Ruptor 12 by shaking for 30 seconds for a total of 5 times using ‘high’ setting. Lysate was normalized using BCA assay (Thermo Fisher Scientific), and subsequently incubated at 95 °C for 10 min for reduction, and alkylation of proteins. A total of 50 μg from each sample was subjected to enzymatic cleavage for 3 h by adding equal amounts of endoproteinase Lys-C and trypsin (ThermoFisher Scientific, # A40009) in a 1:50 (wt/wt) enzyme:protein ratio. De-salting and purification were performed according to the PreOmics iST protocol on a styrene divinylbenzene reversed-phase sulfonate sorbent. Purified peptides were vacuum-centrifuged to dryness and reconstituted in double-distilled water with 2 vol% ACN and 0.1 vol% formic acid (FA) for single-run LC-MS analysis.
Peptides were loaded onto a ReproSil-Pur 120 C18AQ 1.9 µm in-house packed to a 5 µm tip 75u ID × 360u × 50 cm column using Thermo EASY-nLC 1200 coupled online to an Exploris 480 Mass Spectrometer equipped with a Nanospray Flex Ion Source integrated with a column oven (PRSO-V1, Sonation) maintained at 50 °C. Peptides were separated using a nonlinear gradient: Mobile phase A was 0.1 vol% FA and 3 vol% acetonitrile (ACN) in water, Mobile phase B was 90 vol% ACN and 0.1 vol % FA. The gradient was operated at 250 nL/min flowing 3 vol% B for 3 min, 3 to 5 vol% B over 3 min, 5 to 17 vol % B over 120 min, 17 to 24 vol % B over 26 min, 24 to 30 vol% B over 14 min, 30 to 85 vol% B over 3 min.

How did the “Ncl Log2FC” value (3mg/kg) turn out when Cn1cc2cc(-c3cc4[nH]nc(C5CC5)c4n(-c4ccc(OC(F)F)cc4)c3=O)ccc2n1 [AZ’9567] was run?
The value was 0.6.

And the “Nob1 Log2FC” value (3mg/kg)?
The value was 0.9.

And the “Orm1 Log2FC” value (3mg/kg)?
The value was 1.1.

And the “Paics Log2FC” value (3mg/kg)?
Its value is 0.7.

What about the “Pcyt1a Log2FC” value (3mg/kg) of the same compound?
Its value is 0.7.

What about the “Pklr.1 Log2FC” value (3mg/kg) of the same compound?
The value was -1.

What about the “Prmt1 Log2FC” value (3mg/kg) of the same compound?
Its value is 0.6.

What about the “Pspc1 Log2FC” value (3mg/kg) of the same compound?
Its value is 0.5.

And the “Ptprs Log2FC” value (3mg/kg)?
The value was -0.9.

And the “Pum3 Log2FC” value (3mg/kg)?
The value was 0.7.

What about the “Rbm3 Log2FC” value (3mg/kg) of the same compound?
Its value is 0.9.

What about the “Rgn Log2FC” value (3mg/kg) of the same compound?
Its value is -0.7.

What about the “Rmdn1 Log2FC” value (3mg/kg) of the same compound?
The value was 0.6.

What about the “S1pr1 Log2FC” value (3mg/kg) of the same compound?
Its value is -0.7.

And the “Scd1 Log2FC” value (3mg/kg)?
The value was -2.8.

And the “Sh3glb1 Log2FC” value (3mg/kg)?
The value was 0.7.

What about the “Sirt2 Log2FC” value (3mg/kg) of the same compound?
The value was 0.7.

What about the “Sts Log2FC” value (3mg/kg) of the same compound?
The value was -0.7.

What about the “Tat Log2FC” value (3mg/kg) of the same compound?
The value was -1.5.

What about the “Tceanc2 Log2FC” value (3mg/kg) of the same compound?
The value was 1.2.

And the “Thg1l Log2FC” value (3mg/kg)?
Its value is 0.5.

And the “Tpmt Log2FC” value (3mg/kg)?
The value was -1.3.

What about the “Tspo Log2FC” value (3mg/kg) of the same compound?
Its value is 1.7.

What about the “Txnrd2 Log2FC” value (3mg/kg) of the same compound?
Its value is -0.8.

What about the “Ube2f Log2FC” value (3mg/kg) of the same compound?
The value was 0.7.

And the “Ugt2b1 Log2FC” value (3mg/kg)?
Its value is -1.6.

And the “Wdr45 Log2FC” value (3mg/kg)?
Its value is -0.8.

What about the “Ythdc1 Log2FC” value (3mg/kg) of the same compound?
The value was 0.7.

What about the “mvd Log2FC” value (3mg/kg) of the same compound?
Its value is 0.7.

What about the “A2m Log2FC” value (10mg/kg) of the same compound?
Its value is 3.3.

What about the “Abcb1 Log2FC” value (10mg/kg) of the same compound?
Its value is 1.6.

And the “Abhd1 Log2FC” value (10mg/kg)?
Its value is -0.9.

What about the “Acaca Log2FC” value (10mg/kg) of the same compound?
Its value is -1.2.

What about the “Acbd4 Log2FC” value (10mg/kg) of the same compound?
Its value is -1.3.

What about the “Acly Log2FC” value (10mg/kg) of the same compound?
The value was -0.6.

What about the “Acsl1 Log2FC” value (10mg/kg) of the same compound?
Its value is -0.7.

What about the “Acsl3 Log2FC” value (10mg/kg) of the same compound?
Its value is -0.6.

What about the “Acsl5 Log2FC” value (10mg/kg) of the same compound?
The value was -0.6.

And the “Akap5 Log2FC” value (10mg/kg)?
Its value is -1.6.

And the “Aldh1a1 Log2FC” value (10mg/kg)?
Its value is 1.5.

What about the “Aldh1a7 Log2FC” value (10mg/kg) of the same compound?
The value was 1.4.

And the “Aldh16a1 Log2FC” value (10mg/kg)?
The value was -0.5.

And the “Alpl Log2FC” value (10mg/kg)?
Its value is 1.6.

And the “Als2 Log2FC” value (10mg/kg)?
The value was -0.9.

What about the “Anpep Log2FC” value (10mg/kg) of the same compound?
The value was 1.3.

What about the “Aox1 Log2FC” value (10mg/kg) of the same compound?
The value was -1.3.

And the “Apeh Log2FC” value (10mg/kg)?
Its value is -0.7.

And the “Apoc1 Log2FC” value (10mg/kg)?
Its value is -0.9.

What about the “Aqp8 Log2FC” value (10mg/kg) of the same compound?
Its value is 0.9.

And the “Asns Log2FC” value (10mg/kg)?
Its value is 0.9.

And the “Baat Log2FC” value (10mg/kg)?
The value was -1.1.

What about the “Banf1 Log2FC” value (10mg/kg) of the same compound?
Its value is 0.7.

And the “Bhmt2 Log2FC” value (10mg/kg)?
The value was 1.3.

And the “Bhmt Log2FC” value (10mg/kg)?
Its value is 1.7.

And the “Brix1 Log2FC” value (10mg/kg)?
The value was 0.9.

And the “Ca5a Log2FC” value (10mg/kg)?
The value was 0.7.

What about the “Carnmt1 Log2FC” value (10mg/kg) of the same compound?
Its value is -1.5.

What about the “Cbs Log2FC” value (10mg/kg) of the same compound?
The value was -3.1.

What about the “Ccnd1 Log2FC” value (10mg/kg) of the same compound?
Its value is 17.1.

What about the “Cdh1 Log2FC” value (10mg/kg) of the same compound?
Its value is 0.7.

And the “Cdo1 Log2FC” value (10mg/kg)?
Its value is -5.2.

What about the “Ces2c Log2FC” value (10mg/kg) of the same compound?
The value was 1.2.

What about the “Cfdp1 Log2FC” value (10mg/kg) of the same compound?
The value was 0.5.

What about the “Chid1 Log2FC” value (10mg/kg) of the same compound?
Its value is 1.0.

What about the “Comt Log2FC” value (10mg/kg) of the same compound?
The value was -0.6.

What about the “Coq4 Log2FC” value (10mg/kg) of the same compound?
The value was 0.6.

What about the “Csad Log2FC” value (10mg/kg) of the same compound?
Its value is -1.3.

And the “Ctbs Log2FC” value (10mg/kg)?
Its value is -0.7.

What about the “Cyp2c23 Log2FC” value (10mg/kg) of the same compound?
Its value is -1.1.

What about the “Cyp4a10 Log2FC” value (10mg/kg) of the same compound?
Its value is 0.7.

What about the “Dbnl Log2FC” value (10mg/kg) of the same compound?
Its value is 0.5.

What about the “Dcakd Log2FC” value (10mg/kg) of the same compound?
The value was 1.3.

And the “Dkc1 Log2FC” value (10mg/kg)?
Its value is 0.6.

And the “Dmgdh Log2FC” value (10mg/kg)?
Its value is 0.5.

What about the “Dohh Log2FC” value (10mg/kg) of the same compound?
Its value is 0.9.

What about the “Eif4ebp1 Log2FC” value (10mg/kg) of the same compound?
The value was 0.8.

What about the “Enpep Log2FC” value (10mg/kg) of the same compound?
Its value is -0.8.

And the “Fabp4 Log2FC” value (10mg/kg)?
Its value is 1.1.

And the “Fdft1 Log2FC” value (10mg/kg)?
The value was 0.7.

What about the “Fgr Log2FC” value (10mg/kg) of the same compound?
Its value is 1.6.

And the “Gimd1 Log2FC” value (10mg/kg)?
Its value is -0.9.

What about the “Gmpr Log2FC” value (10mg/kg) of the same compound?
Its value is 0.7.

What about the “Gnl3 Log2FC” value (10mg/kg) of the same compound?
The value was 0.9.

What about the “Gnmt Log2FC” value (10mg/kg) of the same compound?
Its value is 1.3.

And the “Gpcpd1 Log2FC” value (10mg/kg)?
Its value is 1.4.

What about the “Gstm1 Log2FC” value (10mg/kg) of the same compound?
Its value is -0.7.

And the “Gstm2 Log2FC” value (10mg/kg)?
The value was -1.0.

And the “Gtpbp4 Log2FC” value (10mg/kg)?
The value was 0.8.

— article PMC11272821, “Mechanistic safety assessment via multi-omic characterisation of systemic pathway perturbations following in vivo MAT2A inhibition” (Archives of Toxicology, 2024)
